Bridge positions count the residues as written; N and C are the ends. Square brackets hold non-standard residues; d marks the D form. Peptide text beside a SMILES is read from it. I, II: the chains in the order shown.
How the values were obtained:
[1] = tested on: E. coli GERB319 biofilms; assay: Biofilm ThT assay in clinical isolate E. coli GERB319; format: cell-based; conditions: dimeric peptides 8 μM, AP5 and P1 16 μM
Experimental: (§1) FIG. 4(a-b). Inhibition of amyloid formation by alpha-sheet designs in live E. coli clinical isolates. […] The concentrations are provided for the dimers, but the P1 and AP5 monomers were double that concentration to provide the same number of monomer units for comparison of the designs (ex. where it says 5 μM applied AP5, it was actually 10 μM). cNFU=corrected, normalized fluorescence units, where normalized signals were corrected by the nonspecific ThT fluorescence of E. coli UTI89 ΔcsgA biofilms. (b) Synthetic α-sheet peptides AP193 and AP195 decreased the ThT fluorescence of E. coli GERB319 biofilms, a clinical UTI isolate with resistance to gentamicin and ciprofloxacin (the dimeric peptides were added at 8 μM and AP5 and P1 were 16 μM to provide the same monomer equivalents). The unstructured control peptide P1 had no effect when applied at the same concentration. […]
Overnight cultures were grown in LB medium for ˜18 h. […] Peptide stocks were dissolved in water and concentrations were determined by Nanodrop™ (Thermo Scientific; Waltham, MA). […] Planktonic cells were spun down and resuspended in PBS, and the optical density of both planktonic and rinse samples was determined at 600 nm to estimate cell densities. […] 100 μL of each biofilm suspension was then transferred to a black-walled, clear-bottom 96 well plate for measurements in a plate reader (PerkinElmer; Waltham, MA). […]

[2] = tested on: curli amyloid fibril formation in live E. coli; assay: TEM of curli amyloid fibril formation in E. coli biofilms; format: cell-based; conditions: equimolar concentrations
Experimental: FIG. 3(a-c).TEM images reveal extensive curli amyloid fibril formation in (a) peptide-free biofilms and biofilms grown in the presence of (c) P1, but not those grown in the presence of (b) AP195 dimer (Scale bars=2 μm). P1 and AP195 were added at equimolar concentrations. AP195 is an α-sheet peptide and P1 is a random coil control.
The random coil peptide control (P1) had no effect.

[3] = tested on: E. coli UTI89 WT biofilms; assay: Biofilm ThT assay in live E. coli UTI89 WT; format: cell-based; conditions: 48 h growth, dimers 1-8 μM, monomers double
Experimental: FIG. 2. Protocol to test inhibition of biofilm amyloid formation in live E. coli. Amyloid formation is assessed through a ThT assay like that used with Abeta and IAPP above. In addition, inhibition of amyloid disrupts the biofilm, leading to an increase in planktonic free-floating bacteria cells, which are then susceptible to antibiotics.
as §1
Overnight cultures were grown in LB medium for ˜18 h. […] Peptide stocks were dissolved in water and concentrations were determined by Nanodrop™ (Thermo Scientific; Waltham, MA). […]

[4] = biological target: T1, Aβ42 (Homo sapiens, UniProt P05067); format: biochemical; conditions: 7500.0
T1 construct: Remove Aβ42 film(s) from −80° C
Experimental: Peptides were co-incubated with 75 μM Aβ in PBS aggregation buffer and monitored for β-sheet formation via ThT fluorescence over time. In each case, AB alone (ie Aβ aggregating in PBS without any inhibitor) was run as the standard control and used for calculating % inhibition by the following equation:
Importantly, each value had its corresponding ‘blank’ subtracted from the raw data, ie: End Inhibitor value=Raw value at the end of the assay-value for peptide alone in PBS at the given concentration.
The ‘blank’ values never exceeded more than 2× starting Aβ value to ensure that overcorrection is not the source of efficacy in data processing-end Aβ value was on average 20× starting Aβ value. Peptide concentration was varied while Aβ concentration remained fixed to investigate the potency of the designs at equal- and sub-stoichiometric ratios of AP: Aβ (ratios investigated include 1:1, 1:10, and 1:100). […]
Inhibition of Abeta aggregation was assessed in our standard ThT assay and the results can be compared to those in the table comparing different peptides in their monomeric and dimeric forms with 10-fold excess of Abeta.
Aβ aggregation and fibril formation, as well as inhibition experiments with α-sheet peptides, were monitored via ThT fluorescence according to the procedure, as follows. […]

T1 sequence (P05067 672-713 limits assumed): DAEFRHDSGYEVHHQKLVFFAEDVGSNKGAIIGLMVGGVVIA

Molecule	ThT fluorescence of biofilms [1]	curli amyloid fibril formation (TEM) [2]	amyloid content in biofilms, ThT fluorescence (cNFU) [3]	% Inhibition 1:10 (AP peptide:Abeta42) [4] [%]
I: Ac-RGN[dW]N[dE]S[dK]MNEYSGW[dM]L[dM]C[dT]MGR-NH2 / II: Ac-RGN[dW]N[dE]S[dK]MNEYSGW[dM]L[dM]C[dT]MGR-NH2 (disulfide I:19-II:19) [AP500d, Ac-RGNwNeSkMNEYSGWmLmCtMGR-NH2]	significant decrease	inhibition of fibril formation	dose-dependent reduction	–
I: Ac-[dR]G[dE]M[dN]L[dS]W[dM][dN][dE][dY][dY]G[dW]T[dM]N[dM]K[dC]G[dR]-NH2 / II: Ac-[dR]G[dE]M[dN]L[dS]W[dM][dN][dE][dY][dY]G[dW]T[dM]N[dM]K[dC]G[dR]-NH2 (disulfide I:21-II:21) [AP527d, Ac-rGeMnLsWmneyyGwTmNmKcGr-NH2]	–	–	–	96
CSCC[C@H](NC(=O)[C@@H](CCC(=O)O)NC(=O)CNC(=O)[C@@H](CCCNC(=N)N)NC(C)=O)C(=O)N[C@H](CC(N)=O)C(=O)N[C@@H](CC(C)C)C(=O)N[C@H](CO)C(=O)N[C@@H](Cc1c[nH]c2ccccc12)C(=O)N[C@H](CCSC)C(=O)N[C@H](CC(N)=O)C(=O)N[C@H](CCC(=O)O)C(=O)N[C@H](Cc1ccc(O)cc1)C(=O)N[C@H](Cc1ccc(O)cc1)C(=O)NCC(=O)N[C@H](Cc1c[nH]c2ccccc12)C(=O)N[C@H](C(=O)N[C@H](CCSC)C(=O)N[C@@H](CC(N)=O)C(=O)N[C@H](CCSC)C(=O)N[C@@H](CCCCN)C(=O)N[C@H](CS)C(=O)NCC(=O)N[C@H](CCCNC(=N)N)C(N)=O)[C@@H](C)O [AP527m, Ac-rGeMnLsWmneyyGwTmNmKcGr-NH2] (Ac-[dR]G[dE]M[dN]L[dS]W[dM][dN][dE][dY][dY]G[dW]T[dM]N[dM]K[dC]G[dR]-NH2)	–	–	–	14
